Assay results reported in paper PMC8923309, “Permeability evaluation of gemcitabine-CPP6 conjugates in Caco-2 cells” (ADMET & DMPK, 2020).
Numbered stars: 1 amine (or outer) side, 2 acyl side, 3 side chain; on linkers, the order of the positions; unused ones are H or OH. Ends that are not written are not given here. Peptide text beside a SMILES is read from it. * marks the point of attachment. X1 = O=c1nc(N*)ccn1[C@@H]1O[C@H](CO)[C@@H](O)C1(F)F; Suc = O=C(CCC(=O)[*:2])[*:1]

Legend:
Caco-2 monolayer [1] = experiment: Transport across Caco-2 monolayer (permeability assay); conditions: HPLC-UV; for sum of the CPP absorbed from the apical side and found in the basolateral chamber at the end of the experiment: 60 μM apical in HBSS pH 7.4, 37 °C, remainder retained in cells or degraded; for percentage of amount applied apically recovered in the basolateral compartment at 120 min / sum of the CPP absorbed from the apical side and found in the basolateral chamber at the end of the experiment: 120 min
Experimental: (§1) A monolayer of Caco-2 cells was established in a 12-well plate [11]. […] Firstly, filters were pre-wet with 0.1 mL of culture medium for 2 minutes. Cells were seeded in the apical side (0.5 mL of cells per well, cell density of 4.0 x 10^5 cells/mL). The basolateral compartment was filled with 1.5 mL of culture medium and plates were incubated for 6 h (5 % CO2 humidified atmosphere at 37 °C). Then, to remove non-adherent cells and reduce the risk of multilayer formation, the medium in the apical side was removed and replaced with fresh medium. Cells were maintained for 29 days, replacing the culture medium from both compartments every other day.
(§2) All the solutions used were pre-warmed to 37 °C. Culture medium was replaced with fresh medium 24 h prior the beginning of the experiment. Next, this culture medium was removed first from the basolateral and then from the apical compartment. The apical compartment was carefully washed and then filled with 0.5 mL of Hank’s Balanced Salt Solution (HBSS, pH 7.4) and the basolateral compartment was also filled with 1.5 mL of HBSS. […] All tested compounds were prepared in HBBS (60 μM) and added to the apical compartment. Throughout this assay, the final volume was 0.4 mL in the apical compartment and 1.2 mL in the basolateral chamber. At t = 0 min, 0.45 mL of the donor solution was added to the apical compartment and a sample (0.05 mL) was immediately taken. The plate was incubated (lid-covered) at 37 °C under gentle shaking (190 rpm). Every 30 min for the next 2 h, a sample of 0.6 mL was taken from the basolateral compartment and replaced with the same volume of HBSS.
(§3) The concentrations of the evaluated compound in the basolateral and apical compartments were determined by high-performance liquid chromatography (HPLC) (VWR International LCC, LaChrom Ultra, Pennsylvania, USA). Elution was performed with a variable gradient of acetonitrile (ACN) in water containing 0.05 % trifluoroacetic acid (TFA), at a 0.7 mL/min flow and detection at variable wavelength (243 nm for gemcitabine and 220 nm for peptides and conjugates).

Caco-2 monolayer [2] = tested on: Caco-2 monolayer
Experimental: as §1, §2, §3

Caco-2 cells = experiment: MTT cytotoxicity assay (cell growth inhibition); assay type: cell-based; conditions: Homo sapiens, 72 h incubation, 0.1-100000 μM, absorbance 570 nm, triplicate
Experimental: Human colon adenocarcinoma cell line Caco-2 (passage 25-47, kindly provided by the Department of Biomedicine of the Faculty of Medicine of University of Porto, and previously acquired via ATCC) was routinely maintained in Dulbecco’s Modified Eagle’s Medium (DMEM) supplemented with 10 % fetal bovine serum (FBS), L-glutamine and antibiotics penicillin and streptomycin. Cells were cultured at 37 °C in a 5 % CO2 humidified atmosphere. Culturing medium was replaced every 2-3 days and cell subculture was conducted once a week by trypsinization (0.25 % trypsin-EDTA wt/vol, 5, min, 37, °C).
The cell growth inhibitory activity of gemcitabine in Caco-2 cells was assessed with the MTT assay. Briefly, a growth curve was traced to determine the best cell density for the assay. […] Finally, MTT solution was removed, DMSO (100 μL per well) was added to solubilize the formazan crystals formed by viable cells and absorbance was measured at 570 nm in an automated microplate reader (Sinergy HT, Biotek Instruments Inc, Vermont, USA). […]
Gemcitabine cytotoxicity results were compared with the untreated control (mean of values was set to 100 %) and expressed as mean ± SEM. The statistical significance between different gemcitabine concentrations was analyzed in GraphPad Prism 7 (San Diego, EUA) using one-way ANOVA (p<0.05).

[3] = parameters: method as in PMID 16807468; conditions: administered intravenously; rapid deamination by cytidine deaminase in serum; cited from earlier work
From the text: Gemcitabine (Gem, dFdC or 2′,2′-difluoro-2′-deoxycytidine, Scheme 1) is a cytotoxic nucleoside analogue used as a chemotherapeutic drug.

[4] = Caco-2 monolayer (29 days, Transwell COL PTFE 0.4 μm), apical to basolateral, 60 μM in HBSS pH 7.4, 37 °C, 190 rpm

Molecule | percentage of amount applied apically recovered in the basolateral compartment at 120 min (Caco-2 monolayer [1]; [4]) | sum of the CPP absorbed from the apical side and found in the basolateral chamber at the end of the experiment (Caco-2 monolayer [1]; Caco-2 monolayer) [%] | further results
CSCC[C@H](NC(=O)[C@@H](NC(=O)[C@@H]1CCCN1C(=O)[C@H](CC(C)C)NC(=O)[C@H](CCCCN)NC(=O)[C@H](Cc1c[nH]c2ccccc12)NC(=O)CCC(=O)Nc1ccn([C@@H]2O[C@H](CO)[C@@H](O)C2(F)F)c(=O)n1)C(C)C)C(N)=O [Gem-CPP6-1] ({X1-Suc}-WKLPVM-NH2) | 9% |  | 
CSCC[C@H](NC(=O)[C@@H](NC(=O)[C@@H]1CCCN1C(=O)[C@H](CC(C)C)NC(=O)[C@H](CCCCN)NC(=O)CCC(=O)Nc1ccn([C@@H]2O[C@H](CO)[C@@H](O)C2(F)F)c(=O)n1)C(C)C)C(=O)N[C@@H](Cc1c[nH]c2ccccc12)C(N)=O [Gem-CPP6-2] ({X1-Suc}-KLPVMW-NH2) | Approximately 31% |  | extent of permeation relative to Gem-CPP6-1 and Gem-CPP6-3 conjugates (Caco-2 monolayer [2]): about 3 fold
Nc1ccn([C@@H]2O[C@H](CO)[C@@H](O)C2(F)F)c(=O)n1 [Gemcitabine, 2′,2′-difluoro-2′-deoxycytidine] | 18% |  | IC50 (Caco-2 cells): 52.4 µM; percentage found in the basolateral side after 30 minutes (Caco-2 monolayer [1]; Caco-2 monolayer (29 days, Transwell COL PTFE 0.4 μm), apical to basolateral, 60 μM in HBSS pH 7.4, 37 °C, 190 rpm, 30 min): 3%; additional percentage of drug crossing the membrane from 90 min (plateau) until 120 min (Caco-2 monolayer [1]; Caco-2 monolayer, apical to basolateral, 60 μM in HBSS pH 7.4, 37 °C, between 90 and 120 min): 1%; half-life [3]: 8 to 17 min
KLPVMW-NH2 [CPP6-2] | 40% | 84 | 
WKLPVM-NH2 [CPP6-1] | 33% | 50 | 
WVPTLK [CPP6-3] | 37% | 75 | 
